Results as given in US20250320205A1, “STAT6 DEGRADERS” (Gilead Sciences, Inc., priority 2024, published 2025).

How the values were obtained:
STAT6 = molecular target: T1, STAT6 (Homo sapiens, UniProt P42226); test: STAT6 Degrader Assay (HiBiT based, HeLa LgBiT clone 4.14 cells); assay type: cell-based; details: geometric mean across assay runs and compound batches; DC50 provided for test compounds with >80% Emax; read-out: STAT6 degradation DC50
T1 construct: These cells express endogenous STAT6; host or cells: HeLa LgBiT clone 4.14 (CRISPR knock-in of HiBiT into the endogenous STAT6 gene)
T1 sequence (P42226 1-847): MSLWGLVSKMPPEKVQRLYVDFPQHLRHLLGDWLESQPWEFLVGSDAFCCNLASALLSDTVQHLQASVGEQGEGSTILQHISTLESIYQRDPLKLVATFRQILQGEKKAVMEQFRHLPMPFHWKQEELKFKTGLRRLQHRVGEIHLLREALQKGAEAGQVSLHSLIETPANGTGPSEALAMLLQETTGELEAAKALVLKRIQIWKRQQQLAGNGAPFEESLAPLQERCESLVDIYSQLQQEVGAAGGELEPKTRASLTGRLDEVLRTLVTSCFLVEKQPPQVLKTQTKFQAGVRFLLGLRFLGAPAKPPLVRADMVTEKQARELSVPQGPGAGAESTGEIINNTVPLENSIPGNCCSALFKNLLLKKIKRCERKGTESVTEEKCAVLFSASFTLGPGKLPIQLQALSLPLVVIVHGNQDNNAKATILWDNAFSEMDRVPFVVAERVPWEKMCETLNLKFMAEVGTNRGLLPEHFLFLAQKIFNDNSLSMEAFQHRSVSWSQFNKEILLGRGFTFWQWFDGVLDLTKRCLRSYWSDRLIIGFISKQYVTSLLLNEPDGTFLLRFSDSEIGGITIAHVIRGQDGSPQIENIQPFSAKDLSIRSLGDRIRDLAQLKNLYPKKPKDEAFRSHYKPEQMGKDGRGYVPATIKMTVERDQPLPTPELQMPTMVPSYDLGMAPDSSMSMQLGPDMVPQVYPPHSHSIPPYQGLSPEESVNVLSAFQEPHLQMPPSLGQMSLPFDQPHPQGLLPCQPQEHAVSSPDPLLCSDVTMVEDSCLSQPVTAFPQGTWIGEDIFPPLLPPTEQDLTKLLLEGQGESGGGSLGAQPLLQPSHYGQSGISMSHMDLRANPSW
How it was run: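 DC50 (nM) comes from NanoBiT luminescence of HiBiT-knock-in STAT6 in HeLa LgBiT clone 4.14 cells, treated 4-24 h at 37° C. Luminescence reflects non-degraded STAT6, with 50 μM terfenadine wells taken as full degradation.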

[1] = system: Eotaxin-3 (CCL26) release; test: Human Whole Blood Eotaxin-3 Assay (IL-4 stimulated); assay type: cell-based; details: Homo sapiens; geometric mean across assay runs and compound batches; EC50 provided for test compounds with >80% Emax
How it was run: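 Lithium-heparin human whole blood preincubated 2 h at 37 °C with compounds (4-fold dilutions, triplicate, 0.5% DMSO final). Then stimulated with 400 pM final recombinant human IL-4 for 48 h. Eotaxin-3 in supernatant quantified by MSD immunoassay.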

Row | Compound | DC50 (STAT6) [nM] | EC50 [1] [nM]
1 | CNc1ccn(-c2ccnc3c2cc([C@H](C)N2CC=C(c4c(C)cc(C(=O)N5CCC(CN6CCN(c7ncc(NC8CCC(=O)NC8=O)cc7F)C[C@@H]6C)CC5)cc4F)CC2)n3C)c(=O)c1 (stereo partly drawn) [Example 2g94, 3-((5-fluoro-6-((S)-4-((1-(3-fluoro-5-methyl-4-(1-((S)-1-(1-methyl-4-(4-(methyl-amino)-2-oxopyridin-1(2H)-yl)-1H-pyrrolo[2,3-b]pyridin-2-yl)ethyl)-1,2,3,6-tetrahydro-pyridin-4-yl)benzoyl)piperi-din-4-yl)methyl)-3-methyl-piperazin-1-yl)pyridin-3-yl)-amino)piperidine-2,6-dione] | 6.6 | 23.6
2 | CNc1ccn(-c2ccnc3c2cc([C@@H](C)N2CC=C(c4c(F)cc(C(=O)N5CCn6nc(CN7CCC(c8ccc(NC9CCC(=O)NC9=O)cc8F)CC7)cc6C5)cc4F)CC2)n3C)c(=O)c1 (stereo partly drawn) [Example 2g103, 3-((4-(1-((5-(3,5-difluoro-4-(1-((R)-1-(1-methyl-4-(4-(methylamino)-2-oxopyridin-1(2H)-yl)-1H-pyrrolo[2,3-b]pyridin-2-yl)ethyl)-1,2,3,6-tetrahydropyridin-4-yl)benzo-yl)-4,5,6,7-tetrahydropyrazolo [1,5-a]pyrazin-2-yl)methyl)-piperidin-4-yl)-3-fluorophen-yl)amino)piperidine-2,6-dione] | 8.8 | 13.1
3 | CNc1ccn(-c2ccnc3c2cc(CN2CCC(c4c(F)cc(C(=O)N5CCC(CN6CCN(c7ccc(NC8CCC(=O)NC8=O)cc7F)CC6)CC5)cc4F)CC2)n3C)c(=O)c1 (stereo not drawn) [Example 2g107, 3-((4-(4-((1-(3,5-difluoro-4-(1-((1-methyl-4-(4-(methyl-amino)-2-oxopyridin-1(2H)-yl)-1H-pyrrolo[2,3-b]pyridin-2-yl)methyl)piperidin-4-yl)-benzoyl)piperidin-4-yl)meth-yl)piperazin-1-yl)-3-fluoro-phenyl)amino)piperidine-2,6-dione] | 25.3 | 26.8
4 | CNc1ccn(-c2ccnc3c2cc([C@H](C)N2CC=C(c4c(F)cc(C(=O)N5CCn6nc(CN7CCC(c8ccc(NC9CCC(=O)NC9=O)cc8F)CC7)cc6C5)cc4F)CC2)n3C)c(=O)c1 (stereo partly drawn) [Example 2g108, 3-((4-(1-((5-(3,5-difluoro-4-(1-((S)-1-(1-methyl-4-(4-(methylamino)-2-oxopyridin-1(2H)-yl)-1H-pyrrolo[2,3-b]pyridin-2-yl)ethyl)-1,2,3,6-tetrahydropyridin-4-yl)benzo-yl)-4,5,6,7-tetrahydropyrazolo [1,5-a]pyrazin-2-yl)methyl)-piperidin-4-yl)-3-fluorophen-yl)amino)piperidine-2,6-dione] | 0.5 | 0.7
5 | CNc1ccn(-c2ccnc3c2cc([C@H](C)N2CCC(c4c(F)cc(C(=O)N5CCn6nc(CN7CCC(c8ccc(NC9CCC(=O)NC9=O)cc8F)CC7)cc6C5)cc4F)CC2)n3C)c(=O)c1 (stereo partly drawn) [Example 2g109, 3-((4-(1-((5-(3,5-difluoro-4-(1-((S)-1-(1-methyl-4-(4-(methylamino)-2-oxopyridin-1(2H)-yl)-1H-pyrrolo[2,3-b]pyridin-2-yl)ethyl)piperidin-4-yl)benzoyl)-4,5,6,7-tetra-hydropyrazolo[1,5-a]pyrazin-2-yl)methyl)piperidin-4-yl)-3-fluorophenyl)amino)piperi-dine-2,6-dione] | 0.4 | 0.3
6 | CNc1cc(=O)n(-c2ccnc3c2cc([C@H](C)N2CC=C(c4c(F)cc(C(=O)N5CCn6nc(CN7CCC(c8ccc(NC9CCC(=O)NC9=O)cc8F)CC7)cc6C5)cc4F)CC2)n3C)cc1F (stereo partly drawn) [Example 2g112, 3-((4-(1-((5-(3,5-difluoro-4-(1-((S)-1-(4-(5-fluoro-4-(methylamino)-2-oxopyridin-1(2H)-yl)-1-methyl-1H-pyr-rolo[2,3-b]pyridin-2-yl)ethyl)-1,2,3,6-tetrahydropyridin-4-yl)benzoyl)-4,5,6,7-tetra-hydropyrazolo[1,5-a]pyrazin-2-yl)methyl)piperidin-4-yl)-3-fluorophenyl)amino)piperi-dine-2,6-dione] | 1.1 | 0.9

Results, then the molecule that gave them:

Row | DC50 (STAT6) [nM] | EC50 [1] [nM] | Compound
7 | 7 | 9.2 | CNc1cc(=O)n(-c2ccnc3c2cc([C@H](C)N2CC=C(c4c(C)cc(C(=O)N5CCC(CN6CCN(c7ccc(NC8CCC(=O)NC8=O)cc7F)CC6)CC5)cc4F)CC2)n3C)cc1F (stereo partly drawn) [Example 2g91, 3-((3-fluoro-4-(4-((1-(3-fluoro-4-(1-((S)-1-(4-(5-fluoro-4-(methylamino)-2-oxopyridin-1(2H)-yl)-1-methyl-1H-pyrrolo[2,3-b]pyridin-2-yl)ethyl)-1,2,3,6-tetrahydropyridin-4-yl)-5-methyl-benzoyl)piperidin-4-yl)methyl)piperazin-1-yl)-phenyl)amino)piperidine-2,6-dione]
8 | 20.8 | 36.7 | CNc1ccn(-c2ccnc3c2cc([C@H](C)N2CC=C(c4c(C)cc(C(=O)N5CCC(CN6CCN(c7ccc(NC8CCC(=O)NC8=O)cc7F)C[C@@H]6C)CC5)cc4F)CC2)n3C)c(=O)c1 (stereo partly drawn) [Example 2g97, 3-((3-fluoro-4-((S)-4-((1-(3-fluoro-5-methyl-4-(1-((S)-1-(1-methyl-4-(4-(methyl-amino)-2-oxopyridin-1(2H)-yl)-1H-pyrrolo[2,3-b]pyridin-2-yl)ethyl)-1,2,3,6-tetrahydro-pyridin-4-yl)benzoyl)piperi-din-4-yl)methyl)-3-methyl-piperazin-1-yl)phenyl)amino)-piperidine-2,6-dione]
9 | 1.2 | 1.8 | CNc1ccn(-c2ccnc3c2cc(CN2CCC(c4c(F)cc(C(=O)N5CCn6nc(CN7CCC(c8ccc(NC9CCC(=O)NC9=O)cc8F)CC7)cc6C5)cc4F)CC2)n3C)c(=O)c1 (stereo not drawn) [Example 2g100, 3-((4-(1-((5-(3,5-difluoro-4-(1-((1-methyl-4-(4-(methyl-amino)-2-oxopyridin-1(2H)-yl)-1H-pyrrolo[2,3-b]pyridin-2-yl)methyl)piperidin-4-yl)-benzoyl)-4,5,6,7-tetrahydro-pyrazolo[1,5-a]pyrazin-2-yl)-methyl)piperidin-4-yl)-3-fluorophenyl)amino)piperi-dine-2,6-dione]
10 | 3.8 | 9 | CNc1ccn(-c2ccnc3c2cc([C@H](C)N2CC=C(c4c(F)cc(C(=O)N5CCC(CN6CCN(c7ccc(NC8CCC(=O)NC8=O)cc7F)CC6)CC5)cc4F)CC2)n3C)c(=O)c1 (stereo partly drawn) [Example 2g104, 3-((4-(4-((1-(3,5-difluoro-4-(1-((S)-1-(1-methyl-4-(4-(methylamino)-2-oxopyridin-1(2H)-yl)-1H-pyrrolo[2,3-b]pyridin-2-yl)ethyl)-1,2,3,6-tetrahydropyridin-4-yl)benzo-yl)piperidin-4-yl)methyl)-piperazin-1-yl)-3-fluorophen-yl)amino)piperidine-2,6-dione]
11 | 10.5 | 23.3 | CNc1ccn(-c2ccnc3c2cc([C@@H](C)N2CCC(c4c(F)cc(C(=O)N5CCn6nc(CN7CCC(c8ccc(NC9CCC(=O)NC9=O)cc8F)CC7)cc6C5)cc4F)CC2)n3C)c(=O)c1 (stereo partly drawn) [Example 2g110, 3-((4-(1-((5-(3,5-difluoro-4-(1-((R)-1-(1-methyl-4-(4-(methylamino)-2-oxopyridin-1(2H)-yl)-1H-pyrrolo[2,3-b]pyridin-2-yl)ethyl)piperidin-4-yl)benzoyl)-4,5,6,7-tetra-hydropyrazolo[1,5-a]pyrazin-2-yl)methyl)piperidin-4-yl)-3-fluorophenyl)amino)piperi-dine-2,6-dione]
12 | 0.6 | 0.6 | CNc1cc(=O)n(-c2ccnc3c2cc([C@H](C)N2CCC(c4c(F)cc(C(=O)N5CCn6nc(CN7CCC(c8ccc(NC9CCC(=O)NC9=O)cc8F)CC7)cc6C5)cc4F)CC2)n3C)cc1F (stereo partly drawn) [Example 2g111, 3-((4-(1-((5-(3,5-difluoro-4-(1-((S)-1-(4-(5-fluoro-4-(methylamino)-2-oxopyridin-1(2H)-yl)-1-methyl-1H-pyrrolo[2,3-b]pyridin-2-yl)-ethyl)piperidin-4-yl)benzoyl)-4,5,6,7-tetrahydropyrazolo [1,5-a]pyrazin-2-yl)methyl)-piperidin-4-yl)-3-fluorophen-yl)amino)piperidine-2,6-dione]
